# In patent US9913843B2, “Protein kinase C inhibitors and uses thereof” (Rigel Pharmaceuticals, Inc., priority 2012, dated 2018):
# Like-named read-outs stand apart in the source and are kept apart here.
# System: PKC mediated IL-2 production in human primary T cells
# Assay: IL-2 ELISA, human primary T cell, anti CD3+CD28+ (whole cell functional assay for PKC mediated IL-2 production)
# Type: cell-based
# Description: Human primary T cells were prepared as follows. Fresh PBMC's from All Cells (Cat # PB002) were re-suspended in RPMI (RPMI-1640 with L-Glutamine; Mediatech, Inc., Herndon Va., cat. #10-040-CM) with 10% FBS and seeded into flasks and incubated at 37° C. for 2 hours to allow the monocytes to adhere. The non-adherent cells were then centrifuged and re-suspended in RPMI medium containing 40 U/ml IL2 and seeded into a flask pre-coated with 1 μg/ml aCD3 and 5 ug/ml aCD28 (Anti-Human CD3, BD Pharmingen Catalog #555336, Anti-Human CD28, Beckman Coulter Catalog #IM1376). The cells were stimulated for 3-4 days, then transferred to a fresh flask and maintained in RPMI (RPMI-1640 with L-Glutamine; Mediatech, Inc., Herndon Va., cat. #10-040-CM) with 10% FBS and 40 U/ml IL-2.
# Human primary T cells (100,000 cells per well) were pre-incubated with or without test compound in RPMI-1640 with L-Glutamine and 10% FBS for 1 hour at 37° C. Cells were then stimulated by transferring them to round-bottom 96-well plates pre-coated with 1 μg/ml aCD3 and 5 μg/ml aCD28. For counter assay, cells were instead stimulated by adding 8× stock solutions of PMA and ionomycin in RPMI-1640 with L-Glutamine and 10% FBS (for final concentrations of 0.5 ng/ml PMA and 0.1 μM ionomycin, both from Calbiochem). Cells were incubated at 37° C. for 24 hours before 100 μL supernatants were harvested for quantification of IL-2 by ELISA using Human IL-2 Duoset ELISA Kit from R and D Systems, Cat. # DY202E.
# Compounds 1-156 were tested in a whole cell functional assay for PKC mediated IL-2 production as follows. Human primary T cell isolation and culture: Human primary T cells were prepared as follows. Whole blood was obtained from a healthy volunteer, mixed 1:1 with PBS, layered on to Ficoll Hypaque (Amersham Pharmacia Biotech, Piscataway, N.J., Catalog #17-1440-03) in 2:1 blood/PBS:ficoll ratio and centrifuged for 30 minutes at 4° C. at 1750 rpm. The cells at the serum: ficoll interface were recovered and washed twice with 5 volumes of PBS. These freshly isolated human peripheral blood mononuclear cells were cultured in Yssel's medium containing 40 U/ml IL2 in a flask pre-coated with 1 μg/ml aCD3 and 5 μg/ml aCD28 (Anti-Human CD3, BD Pharmingen Catalog #555336, Anti-Human CD28, Beckman Coulter Catalog #IM1376). The cells were stimulated for 3-4 days, then transferred to a fresh flask and maintained in RPMI (RPMI-1640 with L-Glutamine; Mediatech, Inc., Herndon Va., cat. #10-040-CM) with 10% FBS and 40 U/ml IL-2. The primary T-cells were then washed twice with PBS to remove the IL-2.
# Primary T cell stimulation and IL2 ELISA: Human primary T cells (100,000 cells per well) were pre-incubated with or without test compound in Yssel's medium for 1 hour at 37° C. Cells were then stimulated by transferring them to round-bottom 96-well plates pre-coated with 1 μg/ml aCD3 and 5 μg/ml αCD28. For counter assay, cells were instead stimulated by adding 8× stock solutions of PMA and ionomycin in Yssels (for final concentrations of 0.5 ng/ml PMA and 0.1 uM ionomycin, both from Calbiochem). Cells were incubated at 37° C. for 24 hours before 100 μL supernatants were harvested for quantification of IL-2 by ELISA using Human IL-2 Duoset ELISA Kit from R and D Systems, Cat. # DY202E.
# [1] = 24 h, human primary T cells stimulated with anti-CD3 + anti-CD28, IL-2 by ELISA, read-out: IC50 for blocking IL-2 production
# [2] = human primary T cells stimulated with anti-CD3 + anti-CD28, 24 h, IL-2 by ELISA, 8 pt, read-out: IL2 ELISA, Human primary T cell, anti-CD3 + CD28, 8 pt (IC50)
SMILES,IC50 [1],IC50 [2]
"COc1cc(Nc2ncc(Cl)c(NC[C@@H]3CCCN4CCCC[C@H]34)n2)cc(OC)c1 [Compound 43, 5-chloro-N4-(((1S,9aR)-octahydro-1H-quinolizin-1-yl)methyl)-N2-(3,5-dimethoxyphenyl)pyrimidine-2,4-diamine]",< 30 µM,0.412 µM
"Fc1ccc(-n2nnnc2C2CC2)cc1Nc1ncc(F)c(NC[C@@H]2CCCN3CCCC[C@H]23)n1 [Compound 45, N2-(5-(5-cyclopropyl-1H-tetrazol-1-yl)-2-fluorophenyl)-5-fluoro-N4-(((1S,9aR)-octahydro-1H-quinolizin-1-yl)methyl)pyrimidine-2,4-diamine]",< 30 µM,0.224 µM
"Fc1cc(C2CC2)c(-n2cnnn2)cc1Nc1nccc(NC[C@@H]2CCCN3CCCC[C@H]23)n1 [Compound 46, N2-(4-cyclopropyl-2-fluoro-5-(1H-tetrazol-1-yl)phenyl)-N4-(((1S,9aR)-octahydro-1H-quinolizin-1-yl)methyl)pyrimidine-2,4-diamine]",< 30 µM,1.12 µM
"Cc1ccc(Nc2nccc(NC[C@@H]3CCCN4CCCC[C@H]34)n2)cc1-n1cnnn1 [Compound 47, N4-(((1S,9aR)-octahydro-1H-quinolizin-1-yl)methyl)-N2-(4-methyl-3-(1H-tetrazol-1-yl)phenyl)pyrimidine-2,4-diamine]",< 30 µM,0.649 µM
"Cn1nnn(-c2cc(Nc3nccc(NC[C@@H]4CCCN5CCCC[C@H]45)n3)c(F)cc2C2CC2)c1=O [Compound 48, 1-(5-(4-(((1S,9aR)-octahydro-1H-quinolizin-1-yl)methylamino)pyrimidin-2-ylamino)-2-cyclopropyl-4-fluorophenyl)-4-methyl-1H-tetrazol-5(4H)-one]",< 30 µM,3.81 µM
"COc1cc(Nc2nccc(NC[C@@H]3CCCN4CCCC[C@H]34)n2)cc(-n2nnnc2C)c1 [Compound 52, N4-(((1S,9aR)-octahydro-1H-quinolizin-1-yl)methyl)-N2-(3-methoxy-5-(5-methyl-1H-tetrazol-1-yl)phenyl)pyrimidine-2,4-diamine]",< 30 µM,0.442 µM
"N#Cc1cccc(Nc2nccc(NC[C@@H]3CCCN4CCCC[C@H]34)n2)c1 [Compound 53, 3-(4-(((1S,9aR)-octahydro-1H-quinolizin-1-yl)methylamino)pyrimidin-2-ylamino)benzonitrile]",< 30 µM,2.53 µM
"N#Cc1cc(Nc2nccc(NC[C@@H]3CCCN4CCCC[C@H]34)n2)c(F)cc1C1CC1 [Compound 56, 5-(4-(((1S,9aR)-octahydro-1H-quinolizin-1-yl)methylamino)pyrimidin-2-ylamino)-2-cyclopropyl-4-fluorobenzonitrile]",< 30 µM,3.8 µM
"COc1cc(Nc2nccc(NC[C@@H]3CCCN4CCCC[C@H]34)n2)cc(OC)c1 [Compound 57, N4-(((1S,9aR)-octahydro-1H-quinolizin-1-yl)methyl)-N2-(3,5-dimethoxyphenyl)pyrimidine-2,4-diamine]",< 30 µM,3.59 µM
"Cc1cnc(Nc2cc(-n3cnnn3)c(C3CC3)cc2F)nc1NC[C@@H]1CCCN2CCCC[C@H]12 [Compound 59, N2-(4-cyclopropyl-2-fluoro-5-(1H-tetrazol-1-yl)phenyl)-N4-(((1S,9aR)-octahydro-1H-quinolizin-1-yl)methyl)-5-methylpyrimidine-2,4-diamine]",< 30 µM,0.16 µM
"Cc1ccc(Nc2ncc(C)c(NC[C@@H]3CCCN4CCCC[C@H]34)n2)cc1-n1cnnn1 [Compound 60, N4-(((1S,9aR)-octahydro-1H-quinolizin-1-yl)methyl)-5-methyl-N2-(4-methyl-3-(1H-tetrazol-1-yl)phenyl)pyrimidine-2,4-diamine]",< 30 µM,1.36 µM
"Cc1cnc(Nc2ccc(F)c(-n3nnnc3C)c2)nc1NC[C@@H]1CCCN2CCCC[C@H]12 [Compound 62, N2-(4-fluoro-3-(5-methyl-1H-tetrazol-1-yl)phenyl)-N4-(((1S,9aR)-octahydro-1H-quinolizin-1-yl)methyl)-5-methylpyrimidine-2,4-diamine]",< 30 µM,1.87 µM

# Continued, values first:
IC50 [1],IC50 [2],SMILES
< 30 µM,0.348 µM,"N#Cc1cc(Nc2ncc(Cl)c(NC[C@@H]3CCCN4CCCC[C@H]34)n2)c(F)cc1C1CC1 [Compound 42, 5-(4-(((1S,9aR)-octahydro-1H-quinolizin-1-yl)methylamino)-5-chloropyrimidin-2-ylamino)-2-cyclopropyl-4-fluorobenzonitrile]"
< 30 µM,1.18 µM,"O=c1[nH]c2cc(Nc3ncc(Cl)c(NC[C@@H]4CCCN5CCCC[C@H]45)n3)ccc2o1 [Compound 44, 5-(4-(((1S,9aR)-octahydro-1H-quinolizin-1-yl)methylamino)-5-chloropyrimidin-2-ylamino)benzo[d]oxazol-2(3H)-one]"
< 30 µM,0.897 µM,"Cc1nnnn1-c1cc(Nc2nccc(NC[C@@H]3CCCN4CCCC[C@H]34)n2)ccc1F [Compound 49, N2-(4-fluoro-3-(5-methyl-1H-tetrazol-1-yl)phenyl)-N4-(((1S,9aR)-octahydro-1H-quinolizin-1-yl)methyl)pyrimidine-2,4-diamine]"
< 30 µM,2 µM,"Cc1nnnn1-c1ccc(F)c(Nc2nccc(NC[C@@H]3CCCN4CCCC[C@H]34)n2)c1 [Compound 50, N2-(2-fluoro-5-(5-methyl-1H-tetrazol-1-yl)phenyl)-N4-(((1S,9aR)-octahydro-1H-quinolizin-1-yl)methyl)pyrimidine-2,4-diamine]"
< 30 µM,0.531 µM,"COc1ccc(Nc2nccc(NC[C@@H]3CCCN4CCCC[C@H]34)n2)cc1-n1nnnc1C [Compound 51, N4-(((1S,9aR)-octahydro-1H-quinolizin-1-yl)methyl)-N2-(4-methoxy-3-(5-methyl-1H-tetrazol-1-yl)phenyl)pyrimidine-2,4-diamine]"
< 30 µM,1.1 µM,"Cc1ccc(Nc2nccc(NC[C@@H]3CCCN4CCCC[C@H]34)n2)cc1C#N [Compound 54, 5-(4-(((1S,9aR)-octahydro-1H-quinolizin-1-yl)methylamino)pyrimidin-2-ylamino)-2-methylbenzonitrile]"
< 30 µM,0.607 µM,"N#Cc1cc(Nc2nccc(NC[C@@H]3CCCN4CCCC[C@H]34)n2)ccc1C1CC1 [Compound 55, 5-(4-(((1S,9aR)-octahydro-1H-quinolizin-1-yl)methylamino)pyrimidin-2-ylamino)-2-cyclopropylbenzonitrile]"
< 30 µM,18.6 µM,"O=c1[nH]c2cc(Nc3nccc(NC[C@@H]4CCCN5CCCC[C@H]45)n3)ccc2o1 [Compound 58, 5-(4-(((1S,9aR)-octahydro-1H-quinolizin-1-yl)methylamino)pyrimidin-2-ylamino)benzo[d]oxazol-2(3H)-one]"
< 30 µM,1.98 µM,"Cc1cnc(Nc2cc(-n3nnn(C)c3=O)c(C3CC3)cc2F)nc1NC[C@@H]1CCCN2CCCC[C@H]12 [Compound 61, 1-(5-(4-(((1S,9aR)-octahydro-1H-quinolizin-1-yl)methylamino)-5-methylpyrimidin-2-ylamino)-2-cyclopropyl-4-fluorophenyl)-4-methyl-1H-tetrazol-5(4H)-one]"
